# Target: T1, human isoform h5-HT4e (Homo sapiens, UniProt Q13639)
# T1 construct: expressed in transfected cells; host or cells: rat glial cells, stably expressing; membranes prepared from homogenized cells
# Assay: displacement of radiolabelled ligand [3H]-GR113808, affinity constant Ki
# Assay type: binding
# Details: [3H]-GR113808 0.2 nM; membranes of rat glial cells stably expressing h5-HT4e; 25° C., 30 min
# Method: The compounds of the invention were evaluated by measuring their affinity constant Ki determined by displacement of a radiolabelled ligand [^3H]—GR113808 in rat glial cells stably expressing the human isoform h5-HT4e.
# Confluent glial cells were washed twice with PBS and centrifuged at 300 g for 5 min. The pellet was used immediately and the cells were suspended in 10 volumes of HEPES (50 mM, pH 7.4, 4° C.) then homogenized in a teflon homogenizer and centrifuged at 40,000 g for 20 min. The pellet was again suspended in 15 volumes of HEPES. Binding displacement experiments were carried out in […] of 50 mM HEPES buffer containing 20 μl of the radiolabelled ligand [^3H]—GR113808 at a concentration of 0.2 nM for the isoform h5-HT4e or at a concentration equal to one-half the Kd of the radioligand for the other isoforms expressed in COS cells, 20 μl of competitor ligand at 7 different concentrations and 50 μl of membrane preparation (100-200 μg of protein determined by the Bradford method). Binding was carried out at 25° C. for 30 min and the reaction was stopped by rapid vacuum filtration (Brandel Harvester) on Whatman GF/B filters preincubated in 0.1% PEI to reduce nonspecific binding.
# Membrane-bound radioactivity was retained on the filter, which was cut and washed with cold buffer (50 mM Tris-HCl, pH 7.4) and incubated overnight in 4 ml of scintillation fluid. Radioactivity was measured in a liquid scintillation counter (Beckmann LS 6500C). Binding data were obtained by computer-assisted linear regression. (Graph Prism Program, Graph Pad Software. Inc., San Diego, Calif.)
# T1 sequence (Q13639 1-378 isoform Q13639-5): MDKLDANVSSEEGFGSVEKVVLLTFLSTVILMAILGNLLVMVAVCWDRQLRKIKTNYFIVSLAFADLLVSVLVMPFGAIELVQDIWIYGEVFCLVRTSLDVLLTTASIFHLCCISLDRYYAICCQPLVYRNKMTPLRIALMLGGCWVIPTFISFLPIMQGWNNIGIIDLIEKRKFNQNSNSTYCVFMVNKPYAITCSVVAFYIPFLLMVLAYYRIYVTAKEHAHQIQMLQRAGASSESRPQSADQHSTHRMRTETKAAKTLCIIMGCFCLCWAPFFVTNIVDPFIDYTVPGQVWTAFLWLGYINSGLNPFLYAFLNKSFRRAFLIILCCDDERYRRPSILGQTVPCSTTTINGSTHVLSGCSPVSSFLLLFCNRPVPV
row,SMILES,Ki [nM]
1,"CCOc1ccccc1NC(=O)OCCN1CCN(c2cccc(NC(=O)C3=CCCN(C)C3)c2)CC1 [Example 21, 2-(4-{3-[(1-methyl-1,2,5,6-tetrahydro-pyridine-3-carbonyl)-amino]-phenyl}-piperazin-1-yl)-ethyl-N-(2-ethoxy-phenyl)carbamate]",0.13
2,"CCOc1ccccc1NC(=O)OCCN1CCN(c2cccc(NC(=O)CCN)c2)CC1 [Example 42, 2-{4-[3-(3-amino-propionylamino)-phenyl]-piperazin-1-yl}-ethyl-N-(2-ethoxy-phenyl)carbamate]",0.17
3,"CCOc1ccccc1NC(=O)OCCN1CCN(c2cccc(NC(=O)C(N)Cc3ccc(O)cc3)c2)CC1 (centres unmarked) [Example 44, 2-(4-{3-[2-amino-3-(4-hydroxy-phenyl)-propionylamino]-phenyl}-piperazin-1-yl)-ethyl-N-(2-ethoxy-phenyl)carbamate]",0.18
4,"CCOc1ccccc1NC(=O)OCCN1CCN(c2cccc(NC(=O)NCC3CCCN3CC)c2)CC1 (centres unmarked) [Example 57, 2-(4-{3-[3-(1-ethyl-pyrrolidin-2-ylmethyl)-ureido]-phenyl}-piperazin-1-yl)-ethyl-N-(2-ethoxy-phenyl)carbamate]",0.09
5,"CCOc1ccccc1NC(=O)OCCN1CCN(c2cccc(NC(=O)N3CCC(N4CCCC4)CC3)c2)CC1 [Example 59, 2-(4-{3-[(4-pyrrolidin-1-yl-piperidine-1-carbonyl)-amino]-phenyl}-piperazin-1-yl)-ethyl-N-(2-ethoxy-phenyl)carbamate]",0.24
6,"CCOc1ccccc1NC(=O)OCCN1CCN(c2cccc(NC(=O)NCCCN3CCN(C)CC3)c2)CC1 [Example 60, 2-[4-(3-{3-[3-(4-methyl-piperazin-1-yl)-propyl]-ureido}-phenyl)-piperazin-1-yl]-ethyl-N-(2-ethoxy-phenyl)carbamate]",0.2
7,"CCOc1ccccc1NC(=O)OCCN1CCN(c2cccc(C(=O)NCCN3CCCCC3)c2)CC1 [Example 78, 2-(4-{3-[2-piperidin-1-yl-ethylcarbamoyl]-phenyl}-piperazin-1-yl)-ethyl-N-(2-ethoxy-phenyl)carbamate]",0.16
8,"CCOc1ccccc1NC(=O)OCCN1CCN(c2cccc(C(=O)N(C)CCN(C)C)c2)CC1 [Example 105, 2-(4-{3-[(2-dimethylamino-ethyl)-methyl-carbamoyl]-phenyl}-piperazin-1-yl)-ethyl N-(2-ethoxy-phenyl)-carbamate]",0.75

# From patent US20050267126A1, “Compounds derived from aryl carbamates, preparation thereof and uses of same” (priority 2002, published 2005)
